pIC50: −log10 of the molar value. Activity calls are given as the source filed them. The calls are words filed in the database; no cut-off is given here.
What was measured:
[1] = biological target: T1, E3 ubiquitin-protein ligase Mdm2 (Homo sapiens, UniProt Q00987); assay: Inhibition of biotin-labelled L-p53 binding to L-MDM2 (25 to 109 residues) (unknown origin) by FAM labeled P4 peptide based fluorescence polarization assay
Target sequence in this assay (Q00987 whole entry, the tested form may be a part): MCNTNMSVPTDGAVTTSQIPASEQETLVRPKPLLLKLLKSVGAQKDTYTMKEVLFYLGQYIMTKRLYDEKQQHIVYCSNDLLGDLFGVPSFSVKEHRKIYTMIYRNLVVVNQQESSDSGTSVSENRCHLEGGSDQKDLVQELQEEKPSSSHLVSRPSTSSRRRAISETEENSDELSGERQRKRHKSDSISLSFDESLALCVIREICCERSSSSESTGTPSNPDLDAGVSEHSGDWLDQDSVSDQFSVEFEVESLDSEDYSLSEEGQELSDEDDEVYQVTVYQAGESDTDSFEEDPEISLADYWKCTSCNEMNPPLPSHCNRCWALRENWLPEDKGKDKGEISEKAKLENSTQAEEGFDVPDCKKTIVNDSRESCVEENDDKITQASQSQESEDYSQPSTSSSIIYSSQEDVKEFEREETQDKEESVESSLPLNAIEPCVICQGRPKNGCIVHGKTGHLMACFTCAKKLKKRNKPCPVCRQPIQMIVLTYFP

Homo sapiens = species on record: Homo sapiens; assay: Binding affinity to MDM2 Cys(Me)77 mutant (unknown origin) assessed as adduct formation at 10 uM after 10 mins by MALDI-TOF-MS analysis
[2] = Inhibition of biotin-labelled P4 peptide binding to MDM2 Ser77 mutant (unknown origin) by surface plasmon resonance method; design: species or system Homo sapiens
[3] = biological target: T1, E3 ubiquitin-protein ligase Mdm2; assay: Binding affinity to MDM2 (25 to 109 residues) (unknown origin) assessed as adduct formation at 10 uM after 10 mins by MALDI-TOF MS analysis
Target sequence in this assay (Q00987 whole entry, looked up, the tested form may be a part): as the sequence (Q00987 whole entry, the tested form may be a part) above

[4] = Inhibition of biotin-labelled P4 peptide binding to MDM2 Cys(Me)77 mutant (unknown origin) by surface plasmon resonance method; design: species or system Homo sapiens
[5] = biological target: T1, E3 ubiquitin-protein ligase Mdm2; assay: Inhibition of biotin-labelled P4 peptide binding to MDM2 (25 to 109 residues) (unknown origin) by surface plasmon resonance method
Target sequence in this assay (Q00987 whole entry, the tested form may be a part): as above

[6] = biological target: T1, E3 ubiquitin-protein ligase Mdm2; assay: Inhibition of biotin-labelled p53 binding to MDM2 (25 to 109 residues) (unknown origin) by surface plasmon resonance method
[7] = Drug level in 1:1 PBS/CH3CN mixture treated with R-(-)-apomorphine at 10 mM measured after 24 hrs by HPLC method
[8] = biological target: T1, E3 ubiquitin-protein ligase Mdm2; assay: Inhibition of biotin-labelled D-p53 binding to D-MDM2 (25 to 109 residues) (unknown origin) by FAM labeled P4 peptide based fluorescence polarization assay
Target sequence in this assay (Q00987 whole entry, looked up, the tested form may be a part): as the sequence (Q00987 whole entry, the tested form may be a part) above

[9] = Inhibition of biotin-labelled p53 binding to MDM2 Ser77 mutant (unknown origin) by surface plasmon resonance method; design: species or system Homo sapiens

Row | Compound | pIC50 [1] | pIC50 [2] | pIC50 [4] | pIC50 [5] | inhibition [6] | pIC50 [6] | further results
1 | CN1CCc2cccc3c2[C@@H]1Cc1ccc(O)c(O)c1-3 [(S)APOMORPHINE] | 6.76 |  |  |  |  |  | 
2 | CN1CCc2cccc3c4c(cc1c23)C=CC(=O)C4=O |  | < 4.52 | < 4.52 | 5.77 | Active |  | Activity (Homo sapiens): Active; Activity [3]: inactive; Drug metabolism [7]: Metabolite detected
3 | CN1CCc2cccc3c2[C@H]1Cc1ccc(O)c(O)c1-3 [APOMORPHINE] | 6.67 | < 4.52 | < 4.52 | < 4.52 | inactive |  | pIC50 [8]: 6.71
4 | O=C1C=CC(=O)C=C1 [BENZOQUINONE] |  |  |  |  |  | 4.86 | pIC50 [9]: < 4.00
5 | Oc1ccccc1O [CATECHOL] |  |  |  |  |  | < 4.00 | 

— ChEMBL document CHEMBL4017461, “Investigation of the inhibitory mechanism of apomorphine against MDM2-p53 interaction” (Bioorg Med Chem Lett, 2017)
